Experimental findings from ChEMBL document CHEMBL4428063, “Novel Pyrimidine Toll-like Receptor 7 and 8 Dual Agonists to Treat Hepatitis B Virus” (J Med Chem, 2016) are described below.

Data set [1] can be described thus: Fraction absorbed in Sprague-Dawley rat plasma at 10 mg/kg, po. In kind it is ADME, organism-based. To be noted: read-out: Fabs.
The target of data set [2] is T1, Toll-like receptor 1 (Homo sapiens) (UniProt Q15399).
T1 sequence (whole entry): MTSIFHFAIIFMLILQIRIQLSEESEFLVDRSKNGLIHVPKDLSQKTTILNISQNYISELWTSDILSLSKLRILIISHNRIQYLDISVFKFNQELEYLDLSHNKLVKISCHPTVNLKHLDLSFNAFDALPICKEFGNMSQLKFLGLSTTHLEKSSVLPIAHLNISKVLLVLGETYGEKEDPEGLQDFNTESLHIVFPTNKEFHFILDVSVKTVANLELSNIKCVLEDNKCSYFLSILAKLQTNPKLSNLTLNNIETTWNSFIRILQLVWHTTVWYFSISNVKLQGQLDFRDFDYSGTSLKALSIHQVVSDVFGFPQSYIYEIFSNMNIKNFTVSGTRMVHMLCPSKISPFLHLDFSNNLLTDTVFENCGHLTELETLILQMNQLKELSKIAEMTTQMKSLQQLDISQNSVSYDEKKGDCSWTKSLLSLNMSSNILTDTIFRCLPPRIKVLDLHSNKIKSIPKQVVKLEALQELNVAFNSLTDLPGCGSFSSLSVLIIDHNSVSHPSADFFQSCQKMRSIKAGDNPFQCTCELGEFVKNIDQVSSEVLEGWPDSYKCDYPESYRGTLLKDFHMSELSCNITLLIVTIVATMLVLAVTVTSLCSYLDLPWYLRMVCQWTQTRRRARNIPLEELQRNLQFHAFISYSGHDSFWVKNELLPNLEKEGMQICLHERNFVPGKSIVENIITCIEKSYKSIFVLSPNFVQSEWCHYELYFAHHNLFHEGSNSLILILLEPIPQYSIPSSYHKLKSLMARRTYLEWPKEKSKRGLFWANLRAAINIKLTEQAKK
In words: Agonist activity at wild-type human TLR1 expressed in HEK293 cells up to 25 uM measured after 6 hrs by NF-kappaB luciferase reporter gene assay. Type of data set: cell-based. For orientation: A reporter such as luciferase makes a cellular process visible.

Data set [3] is described as follows: Intrinsic clearance in human hepatocytes at 1 uM measured after 120 mins. Type of data set: ADME, cell-based, Hepatocyte. The conditions noted are these: 2 h.
A short description of data set [4]: Tmax in cynomolgus monkey plasma at 9 mg/kg, administered through oral gavage measured after 24 hrs. Type of data set: ADME, organism-based, Macaca fascicularis.
Data set [5] can be described thus: Intrinsic clearance in C57Bl/6 mouse liver microsomes assessed per mg protein at 1 uM measured after 60 mins. In kind it is ADME, Microsome. The conditions noted are these: read-out: CLH. For orientation: Liver microsomes are vesicles of endoplasmic reticulum, rich in cytochrome P450 enzymes.
The nature of data set [6]: Plasma concentration in C57Bl/6 mouse infected with HBV genotype D at 5 mg/kg, po dosed once per week for 8 weeks and measured after 164 hrs after dosing prior to subsequent dosing. In kind it is ADME, organism-based. The conditions noted are these: in vivo.
Data set [7] is described as follows: Intrinsic clearance in dog liver microsomes assessed per mg protein at 1 uM measured after 60 mins. To be noted: read-out: CLH. Type of data set: ADME, Canis lupus familiaris, Microsome.
A short description of data set [8]: Plasma concentration in C57Bl/6 mouse infected with HBV genotype D at 5 mg/kg, po dosed once per week for 8 weeks administered 6 weeks after viral infection and measured on day 42 post 1 hr of dosage. Type of data set: ADME, organism-based. To be noted: in vivo.
A short description of data set [9]: Intrinsic clearance in cynomolgus monkey liver microsomes assessed per mg protein at 1 uM measured after 60 mins. Type of data set: ADME, Macaca fascicularis, Microsome. To be noted: read-out: CLH.
A short description of data set [10]: Intrinsic clearance in dog hepatocytes at 1 uM measured after 120 mins. Type of data set: ADME, cell-based, Canis lupus familiaris, Hepatocyte. To be noted: 2 h.
A short description of data set [11]: Cmax in Sprague-Dawley rat plasma at 10 mg/kg, po. Type of data set: ADME, organism-based. More on the design: dose 10 mg/kg, route oral.
Data set [12] concerns the target T2, Toll-like receptor 9 (Homo sapiens) (UniProt Q9NR96).
T2 sequence (whole entry): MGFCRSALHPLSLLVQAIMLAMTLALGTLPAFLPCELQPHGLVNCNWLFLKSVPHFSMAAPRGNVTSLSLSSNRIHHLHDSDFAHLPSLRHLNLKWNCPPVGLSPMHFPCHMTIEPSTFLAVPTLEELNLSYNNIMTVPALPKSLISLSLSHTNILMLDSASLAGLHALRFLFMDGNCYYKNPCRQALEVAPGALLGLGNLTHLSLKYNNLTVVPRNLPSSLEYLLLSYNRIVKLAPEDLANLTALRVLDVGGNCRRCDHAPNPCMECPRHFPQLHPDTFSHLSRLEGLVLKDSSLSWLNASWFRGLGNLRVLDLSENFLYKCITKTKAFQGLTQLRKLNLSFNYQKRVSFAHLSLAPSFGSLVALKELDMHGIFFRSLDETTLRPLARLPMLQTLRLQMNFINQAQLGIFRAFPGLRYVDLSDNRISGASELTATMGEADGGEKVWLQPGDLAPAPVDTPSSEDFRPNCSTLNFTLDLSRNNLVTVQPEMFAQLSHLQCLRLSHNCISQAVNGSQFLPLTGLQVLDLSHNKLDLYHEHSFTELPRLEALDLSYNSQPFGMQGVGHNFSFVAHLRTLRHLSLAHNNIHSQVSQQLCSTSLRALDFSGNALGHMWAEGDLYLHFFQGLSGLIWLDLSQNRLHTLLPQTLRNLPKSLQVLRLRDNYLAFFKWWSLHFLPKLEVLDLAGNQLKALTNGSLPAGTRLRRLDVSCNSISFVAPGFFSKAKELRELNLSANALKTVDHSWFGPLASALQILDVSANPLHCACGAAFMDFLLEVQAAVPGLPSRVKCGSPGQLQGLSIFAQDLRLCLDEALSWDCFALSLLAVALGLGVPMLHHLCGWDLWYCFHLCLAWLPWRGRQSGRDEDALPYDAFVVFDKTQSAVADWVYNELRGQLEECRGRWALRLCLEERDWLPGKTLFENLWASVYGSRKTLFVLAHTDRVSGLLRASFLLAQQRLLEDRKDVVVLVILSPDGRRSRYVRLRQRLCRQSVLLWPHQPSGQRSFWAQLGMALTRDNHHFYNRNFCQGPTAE
Nature of the data set: Agonist activity at wild-type human TLR9 expressed in HEK293 cells up to 25 uM measured after 6 hrs by NF-kappaB luciferase reporter gene assay. In kind it is cell-based.

The source made the active and inactive calls. No cut-off for these calls is given here.

For `CCCC[C@@H](CCO)Nc1nc(N)ncc1OC`, the Fa in data set [1] worked out at 55%. The result in data set [2] and in data set [12] was inactive. In addition, the CLH is 18 µL/min in [3] and 99 µL/min in data set [10]. For the same compound, the Tmax (usually the time at which the peak concentration occurs) in data set [4] was in the range of 0.5 to 2 h. For the same compound, the microsomal CLint at 1 µM in [5] came to 5 µL/min/mg; in data set [7], 7 µL/min/mg; in [9] it was 8 µL/min/mg. Moreover, the Drug uptake result in data set [6] is given as “Not Active”. This compound also displayed a Cp in data set [8] of 245 ng/mL. For the same compound, in [11], the Cmax (in general, the highest concentration seen after dosing) was determined as 65 ng/mL.
